From PubChem BioAssay (NCI)
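These data come from cells grown in 96-well plates and exposed to compound for 48 hours at five concentrations. Definition used: TGI = concentration required for complete inhibition of growth.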

What was measured:
Experiment in all cases: growth of human tumour cells (NCI), 48 h
786-0 renal = system: 786-0 renal
A498 renal = system: A498 renal
A549 NSCLC = system: A549 NSCLC
ACHN renal = system: ACHN renal
CAKI-1 renal = system: CAKI-1 renal
CCRF-CEM leukemia = system: CCRF-CEM leukemia
COLO 205 colon = system: COLO 205 colon
DLD-1 colon = system: DLD-1 colon
DMS 273 small cell lung = system: DMS 273 small cell lung
EKVX NSCLC = system: EKVX NSCLC
HCC-2998 colon = system: HCC-2998 colon
HCT-116 colon = system: HCT-116 colon
HCT-15 colon = system: HCT-15 colon
HL-60(TB) leukemia = system: HL-60(TB) leukemia
HOP-18 NSCLC = system: HOP-18 NSCLC
HOP-62 NSCLC = system: HOP-62 NSCLC
HT29 colon = system: HT29 colon
IGROV1 ovarian = system: IGROV1 ovarian
K-562 leukemia = system: K-562 leukemia
KM12 colon = system: KM12 colon
KM20L2 colon = system: KM20L2 colon
LOX IMVI melanoma = system: LOX IMVI melanoma
M14 melanoma = system: M14 melanoma
M19-MEL melanoma = system: M19-MEL melanoma
MALME-3M melanoma = system: MALME-3M melanoma
MOLT-4 leukemia = system: MOLT-4 leukemia
NCI-H226 lung = system: NCI-H226 lung
NCI-H23 lung = system: NCI-H23 lung
NCI-H460 lung = system: NCI-H460 lung
NCI-H522 lung = system: NCI-H522 lung
OVCAR-3 ovarian = system: OVCAR-3 ovarian
OVCAR-4 ovarian = system: OVCAR-4 ovarian
OVCAR-5 ovarian = system: OVCAR-5 ovarian
OVCAR-8 ovarian = system: OVCAR-8 ovarian
RXF 393 renal = system: RXF 393 renal
SF-268 CNS = system: SF-268 CNS
SF-295 CNS = system: SF-295 CNS
SF-539 CNS = system: SF-539 CNS
SK-MEL-2 melanoma = system: SK-MEL-2 melanoma
SK-MEL-28 melanoma = system: SK-MEL-28 melanoma
SK-MEL-5 melanoma = system: SK-MEL-5 melanoma
SK-OV-3 ovarian = system: SK-OV-3 ovarian
SN12C renal = system: SN12C renal
SNB-19 CNS = system: SNB-19 CNS
SNB-75 CNS = system: SNB-75 CNS
SNB-78 CNS = system: SNB-78 CNS
SW-620 colon = system: SW-620 colon
TK-10 renal = system: TK-10 renal
U251 CNS = system: U251 CNS
UACC-257 melanoma = system: UACC-257 melanoma
UACC-62 melanoma = system: UACC-62 melanoma
XF 498 CNS = system: XF 498 CNS
DMS 114 small cell lung = system: DMS 114 small cell lung
HOP-92 NSCLC = system: HOP-92 NSCLC
LXFL 529 NSCLC = system: LXFL 529 NSCLC
SR leukemia = system: SR leukemia
UO-31 renal = system: UO-31 renal
RPMI-8226 leukemia = system: RPMI-8226 leukemia

Measured: TGI

CCOC(=O)C1Nc2ccccc2[C@H]2OCC[C@@H]12 (stereo not given in full)
not listed: DMS 114 small cell lung | HOP-92 NSCLC | LXFL 529 NSCLC | SR leukemia | UO-31 renal | RPMI-8226 leukemia
> 100 µM: all other assays above

Cc1cc(=O)c2c(O)cc3c(c2o1)CC=C(COC1OC(COC2OC(CO)C(O)C(O)C2O)C(O)C(O)C1O)CO3 (stereo not given)
not listed: A498 renal | HL-60(TB) leukemia | HOP-18 NSCLC | HT29 colon | RXF 393 renal | RPMI-8226 leukemia
> 100 µM: all other assays above

CC(=O)/C(=C\c1ccccc1O)C(=O)Nc1ccccc1C
44.7 µM: HOP-62 NSCLC
79 µM: IGROV1 ovarian
76.2 µM: SF-295 CNS
72 µM: OVCAR-3 ovarian
29.3 µM: HCC-2998 colon
62.4 µM: NCI-H226 lung
37.2 µM: HT29 colon | NCI-H23 lung
54.3 µM: SNB-19 CNS
42.2 µM: SF-539 CNS
79.1 µM: DLD-1 colon
37.1 µM: OVCAR-5 ovarian
44.9 µM: HOP-92 NSCLC
70.1 µM: MOLT-4 leukemia
24.7 µM: U251 CNS
39.9 µM: M14 melanoma
41.5 µM: KM12 colon
31 µM: UO-31 renal
27.9 µM: SK-MEL-5 melanoma
98.7 µM: SNB-78 CNS
98.6 µM: LXFL 529 NSCLC
53.7 µM: SW-620 colon
45.3 µM: HCT-15 colon
27.6 µM: LOX IMVI melanoma
46.9 µM: SK-MEL-2 melanoma
96.8 µM: EKVX NSCLC
63.8 µM: CAKI-1 renal
84.9 µM: CCRF-CEM leukemia
68.7 µM: UACC-62 melanoma
41.8 µM: HL-60(TB) leukemia
29.4 µM: 786-0 renal
37.5 µM: RXF 393 renal
48.1 µM: SR leukemia
89.1 µM: A549 NSCLC
40.9 µM: ACHN renal
71.4 µM: RPMI-8226 leukemia
28.1 µM: XF 498 CNS
53.8 µM: SK-MEL-28 melanoma
47.7 µM: MALME-3M melanoma
not listed: A498 renal | COLO 205 colon | DMS 273 small cell lung | KM20L2 colon | NCI-H522 lung | SN12C renal | SNB-75 CNS | TK-10 renal
> 100 µM: all other assays above

O=Cc1ccc2c(c1I)OCO2
not listed: RXF 393 renal | SF-268 CNS | SK-MEL-28 melanoma | XF 498 CNS | DMS 114 small cell lung | HOP-92 NSCLC | LXFL 529 NSCLC
> 100 µM: all other assays above
